Reference: publication PMC6982876, “Synthesis of Novel Benzodifuranyl; 1,3,5-Triazines; 1,3,5-Oxadiazepines; and Thiazolopyrimidines Derived from Visnaginone and Khellinone as Anti-Inflammatory and Analgesic Agents” (Molecules, 2020)
Marks after values point to notes of the source that are not given here.

Legend:
[1] = test system: carrageenan-induced paw edema in rats; test: Carrageenan-induced paw edema (anti-inflammatory activity); assay type: in vivo; settings: 10 mg/kg oral; for % Change in Paw Height (Mean ± SEM): n = 5
Method: Albino rats (150–180 g) were used. The rats were divided into 11 experimental groups of five rats each. One hour after oral administration of the compounds (10 mg/kg), 0.1 mL of 1% carrageenan solution was injected in the left hind paw of each animal. Rat paw volumes were measured with a digital caliber plethysmometer (UGO Basile, Varese, Italy) used to measure inflammation height at 0, 1, 2, and 3 h after carrageenan injection. The percentage increase in inflammation in the left hind paw, in comparison to the uninjected right hind paw, was determined, calculated, and expressed as the amount of inflammation. […] The anti-inflammatory activity of the selected analgesic compounds after 3 h was expressed as percentage inhibition of edema, which was calculated according to the following equation: (2) Inhibition of edema (%) =Vcont−Vtest/Vcont×100* where V cont is the edema volume in the control group, and V test is the edema volume in the group of the screened compound.

[2] = test system: acetic acid-induced writhing in mice; test: Acetic acid-induced writhing test (analgesic activity); assay type: in vivo; settings: 10 mg/kg p.o., n = 5; for Writhing Number in 20 min (Mean ± SEM): acetic acid 1 h after dosing; for Analgesic Activity (% protection): writhing test
Method: The analgesic activity of the compounds was performed using the writhing test as described by Gawade et al.. Mice weight ranged from 25 to 30 g. Then, mice were divided into 18 different groups, each containing five animals. The animals fasted for 8 h before the experiment. Administration of the compounds (10 mg/kg, p.o.) was performed orally. Equal doses of diclofenac as the reference drug and saline as a negative control were also administrated orally. Writhing was induced one hour after compound administration by using 0.1 mL of 1% glacial acetic acid at a volume of 0.1 mL/10 g body weight. The number of writhing responses (stretching of the abdomen, extension of hind limbs, twisting of the trunk, and elongation of the body) observed was counted for 20 min. The protection percentile against acetic acid-induced writhing was calculated according to the following formula: (1) Analgesic activity (%) =n−n′/n×100* where n is the mean number of writhes of the control group, and n’ is the mean number of writhes of the tested compound group.

human recombinant COX-2 = target: T1, human recombinant COX-2 (Homo sapiens, UniProt P35354); test: In vitro COX inhibitor screening assay (EIA kit, Cayman), COX-2; assay type: biochemical; settings: for COX2 (SI) selectivity index: COX-1 IC50 / COX-2 IC50; for IC50: COX-2, mean of two determinations, enzyme kit, read-out: COX2 IC50
T1 construct: purchased Cayman Chemical, Ann Arbor, MI, USA 560131
T1 sequence (P35354 18-604): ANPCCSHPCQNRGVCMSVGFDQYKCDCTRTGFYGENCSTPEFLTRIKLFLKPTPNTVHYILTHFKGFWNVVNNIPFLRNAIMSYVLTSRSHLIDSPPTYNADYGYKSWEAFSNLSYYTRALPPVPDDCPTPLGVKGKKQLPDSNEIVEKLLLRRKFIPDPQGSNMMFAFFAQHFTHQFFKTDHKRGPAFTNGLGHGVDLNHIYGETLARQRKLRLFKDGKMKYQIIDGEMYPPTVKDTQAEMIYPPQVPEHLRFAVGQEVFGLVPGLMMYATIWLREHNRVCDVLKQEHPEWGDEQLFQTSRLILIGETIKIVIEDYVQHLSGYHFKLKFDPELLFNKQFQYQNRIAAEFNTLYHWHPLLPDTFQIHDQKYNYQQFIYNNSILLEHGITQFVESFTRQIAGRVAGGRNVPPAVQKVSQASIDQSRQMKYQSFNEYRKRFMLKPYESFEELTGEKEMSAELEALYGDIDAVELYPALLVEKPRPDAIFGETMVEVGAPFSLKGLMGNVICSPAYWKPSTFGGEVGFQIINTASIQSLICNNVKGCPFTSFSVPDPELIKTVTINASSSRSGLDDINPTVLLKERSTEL
Method: (§1) Furthermore, the selectivity index for COX-2 (COX-1 IC50 / COX-2 IC50) was calculated for the compounds.

ovine COX-1 = target: T2, ovine COX-1 (Ovis aries, UniProt P05979); test: In vitro COX inhibitor screening assay (EIA kit, Cayman), COX-1; assay type: biochemical; settings: mean of two determinations, enzyme kit, read-out: COX1 IC50
T2 construct: purchased Cayman Chemical, Ann Arbor, MI, USA 560131
T2 sequence (P05979 25-600): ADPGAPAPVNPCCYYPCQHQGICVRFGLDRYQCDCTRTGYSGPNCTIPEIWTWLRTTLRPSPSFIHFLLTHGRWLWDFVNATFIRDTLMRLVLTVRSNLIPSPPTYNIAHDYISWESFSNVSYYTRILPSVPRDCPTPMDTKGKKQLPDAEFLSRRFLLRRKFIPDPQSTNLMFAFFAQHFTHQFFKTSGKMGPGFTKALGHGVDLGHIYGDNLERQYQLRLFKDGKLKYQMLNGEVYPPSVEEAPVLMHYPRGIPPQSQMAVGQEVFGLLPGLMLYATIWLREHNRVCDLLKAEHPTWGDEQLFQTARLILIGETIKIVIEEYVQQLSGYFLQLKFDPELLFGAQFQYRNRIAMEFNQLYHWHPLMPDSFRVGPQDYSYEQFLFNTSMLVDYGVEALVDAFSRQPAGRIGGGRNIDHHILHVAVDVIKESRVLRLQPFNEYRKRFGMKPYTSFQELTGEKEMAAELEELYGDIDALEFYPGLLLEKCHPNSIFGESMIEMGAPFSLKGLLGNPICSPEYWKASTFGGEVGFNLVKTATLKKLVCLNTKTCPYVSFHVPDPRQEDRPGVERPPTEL
Method: as §1

[3] = test system: interleukin-1 beta (IL-1 β); test: ELISA of serum interleukin-1 beta after paw edema test; assay type: in vivo, rats; settings: rat serum at the end of the paw edema test, mean ± SEM, n = 5
Method: IL1 is one of the important inflammatory mediators and is used to confirm the anti-inflammatory activities of new anti-inflammatory compounds. At the end of the paw edema test, blood samples were collected from the orbital axis of the eye under light ether anesthesia. Sera were separated after centrifugation of blood at 5000 rpm for 15 min; the sera were stored at –80 °C until the ELISA assay was performed according to the manufacturer instructions.

SMILES	melting point	COX2 (SI) selectivity index (human recombinant COX-2)	IC50 (human recombinant COX-2)	IC50 (ovine COX-1)	% Change in Paw Height (Mean ± SEM) ([1]; 1 hr after carrageenan)	% Change in Paw Height (Mean ± SEM) ([1]; 2 hr after carrageenan)	Anti-Inflammatory Activity (% Inhibition of Edema) ([1]; 3 hr after carrageenan)	% Change in Paw Height (Mean ± SEM) ([1]; 3 hr after carrageenan)	Writhing Number in 20 min (Mean ± SEM) [2]	Analgesic Activity (% protection) [2]	IL-1 β Concentration [3]
COc1c2occc2c(OC)c2c(C)c(C(Cl)=Nc3cc(Cl)nc(=S)[nH]3)oc12 [Compound 8b, N-(6-chloro-2-thioxo-2,3-dihydropyrimidin-4-yl)-4,8-dimethoxy-3-methylbenzo [1,2-b: 5,4-b`] difuran-2-carbimidoyl chloride]	347 to 349 °C	63	245 nM	15.5 µM	0.36 ± 0.01 ^a %	0.29 ± 0.02 ^a %	42%	0.35 ± 0.02 ^a %	47 ± 2.2 ^a,b	28 ± 0.95%	
COc1c2occc2c(OC)c2c(C)c(C(Cl)=Nc3cc(Cl)nc(SC)n3)oc12 [Compound 9b, N-(6-chloro-2-(methylthio)pyrimidin-4-yl)-4,8-dimethoxy-3-methylbenzo [1,2-b: 5,4-b`] difuran-2-carbimidoyl chloride]	> 350 °C	72	155 nM	11.1 µM	0.33 ± 0.02 ^a %	0.27 ± 0.01 ^a %	48%	0.31 ± 0.01 ^a %	44 ± 2.5 ^a,b	32 ± 1.2%	
COc1c2ccoc2cc2oc(C(=Nc3cc(N4CCOCC4)nc(N4CCOCC4)n3)N3CCOCC3)c(C)c12 [Compound 10b, N-(2,6-dimorpholinopyrimidin-4-yl)-1-(4-methoxy-3-methylbenzo [1,2-b: 5,4-b`]difuran-2-yl)-1-morpholinomethanimine]	> 350 °C	96	48 nM	4.6 µM	0.21 ± 0.02 ^a %	0.16 ± 0.01 ^a %	65%	0.18 ± 0.01 ^a %	27 ± 1.1 ^a	48 ± 1.5 ^a %	33 ± 0.38 ^b Pg /mL
COc1c2occc2c(OC)c2c(C)c(C(=Nc3cc(N4CCOCC4)nc(N4CCOCC4)n3)N3CCOCC3)oc12 [Compound 10d, 1-(4,8-dimethoxy-3-methylbenzo [1,2-b: 5,4-b`]difuran-2-yl)-N-(2,6-dimorpholino-pyrimidin-4-yl)-1-morpholinomethanimine]	> 350 °C	97	46 nM	4.45 µM	0.20 ± 0.01 ^a %	0.15 ± 0.02 ^a %	66%	0.17 ± 0.02 ^a %	26 ± 1.2 ^a	49 ± 1.1 ^a %	32 ± 0.45 ^b Pg /mL

Continued by falling IC50 (ovine COX-1), values first:

melting point	COX2 (SI) selectivity index (human recombinant COX-2)	IC50 (human recombinant COX-2)	IC50 (ovine COX-1)	SMILES	% Change in Paw Height (Mean ± SEM) ([1]; 1 hr after carrageenan)	% Change in Paw Height (Mean ± SEM) ([1]; 2 hr after carrageenan)	Anti-Inflammatory Activity (% Inhibition of Edema) ([1]; 3 hr after carrageenan)	% Change in Paw Height (Mean ± SEM) ([1]; 3 hr after carrageenan)	Writhing Number in 20 min (Mean ± SEM) [2]	Analgesic Activity (% protection) [2]	IL-1 β Concentration [3]
337 to 339 °C	61	280 nM	17 µM	COc1c2ccoc2cc2oc(C(Cl)=Nc3cc(Cl)nc(=S)[nH]3)c(C)c12 [Compound 8a, N-(6-chloro-2-thioxo-2,3-dihydropyrimidin-4-yl)-4-methoxy-3-methylbenzo [1,2-b: 5,4-b`] difuran-2-carbimidoyl chloride]	0.37 ± 0.02 ^a %	0.30 ± 0.03 ^a %	40%	0.37 ± 0.02 ^a %	48 ± 1.9 ^a,b	27 ± 0.60%	
> 350 °C	70	170 nM	12 µM	COc1c2ccoc2cc2oc(C(Cl)=Nc3cc(Cl)nc(SC)n3)c(C)c12 [Compound 9a, N-(6-chloro-2-(methylthio)pyrimidin-4-yl)-4-methoxy-3-methylbenzo [1,2-b: 5,4-b`] difuran-2-carbimidoyl chloride]	0.35 ± 0.01 ^a %	0.28 ± 0.02 ^a %	45%	0.33 ± 0.02 ^a %	45 ± 2.4 ^a,b	30 ± 1.05%	
> 350 °C	98	43 nM	4.23 µM	COc1c2ccoc2cc2oc(C(=Nc3cc(N4CCNCC4)nc(N4CCNCC4)n3)N3CCNCC3)c(C)c12 [Compound 10a, N-(2,6-di (piperazin-1-yl)pyrimidin-4-yl)-1-(4-methoxy-3-methylbenzo [1,2-b: 5,4-b`]difuran-2-yl)-1-(piperazin-1-yl) methanimine]	0.19 ± 0.01 ^a %	0.14 ± 0.02 ^a %	67%	0.16 ± 0.02 ^a %	25 ± 1.3 ^a	50 ± 1.6 ^a %	31 ± 0.55 ^b Pg /mL
			4.15 µM	COc1c2occc2c(OC)c2c(C)c(C(=Nc3cc(N4CCNCC4)nc(N4CCNCC4)n3)N3CCNCC3)oc12 [Compound 10c, N-(2,6-di (piperazin-1-yl)pyrimidin-4-yl)-1-(4,8-dimethoxy-3-methylbenzo [1,2-b: 5,4-b`]difuran-2-yl)-1-(piperazin-1-yl) methanimine]	0.18 ± 0.01 ^a %	0.13 ± 0.02 ^a %	68%	0.15 ± 0.02 ^a %	24 ± 1.5 ^a	51 ± 1.4 ^a %	30 ± 0.70 ^b Pg /mL
